{"source": "patent US11911356B2", "about": "“Regulation of mutant TERT by BRAF V600E/map kinase pathway through FOS/GABP in human cancer” (THE JOHNS HOPKINS UNIVERSITY, priority 2017, dated 2024)", "key": {"FOS phosphorylation": {"system": "FOS phosphorylation", "experiment": "Western blotting of phosphorylated FOS in K1 and A375 cells", "assay_type": "cell-based, human", "details": "0.5 uM PLX4032 for 0, 1 and 24 hours", "method": "FIG. 6A-6J. BRAF V600E promoted FOS binding to GABPB by upregulating FOS phosphorylation. (FIG. 6A) Western blotting analyses for phosphorylated-FOS (p-FOS), total FOS (t-FOS), BRAF, and beta-actin in K1 and A375 cells with or without stable BRAF knockdown. (FIG. 6B) Western blotting analyses of p-FOS, t-FOS, p-ERK, and beta-actin in K1 and A375 cells treated with 0.5 uM PLX4032 for 0, 1, and 24 hours. (FIG. 6C-6E) Effects of FOS phosphorylation on GABPB and TERT activation. (FIG. 6C) KAT18 cells were serum-starved for 24 hours and transiently transfected with FOS wild-type (FOS-wt) or mutant (FOS-mut) bearing none of the potential ERK-targeted phosphorylation sites, followed by Western blotting analysis for TERT, GABPB, p-FOS, t-FOS, and beta-actin. (FIG. 6D) KAT18 cells were transfected with FOS-wt or FOS-mut along with GABPB 5′-UTR luciferase reporter and Renilla luciferase (pRL-TK) plasmids in the absence of serum for 24 hours, and the luciferase activities were then measured. […]\n(§1) Cells were lysed in the RIPA buffer (#sc-24948; Santa Cruz Biotechnology, Santa Cruz, CA) with protease inhibitor cocktail (#P8340; Sigma-Aldrich) and phosphatase inhibitor cocktail (#P0044; Sigma-Aldrich) and Western blotting analysis was performed as we previously described^54. […] Signals were detected by SuperSignal™ West Pico PLUS Chemiluminescent Substrate (#34579; Thermo Fisher Scientific). […]"}, "MYC expression": {"system": "MYC expression", "experiment": "Western blotting of MYC in BRAF V600E cancer cell lines", "assay_type": "cell-based, human", "details": "four cancer cell lines harboring BRAF V600E; 0.5 uM PLX4032, 24 hours", "method": "FIG. 3A-3C. MYC regulated TERT expression in a TERT promoter mutation-independent manner. (FIG. 3A) The four indicated cancer cell lines harboring BRAF V600E mutation were treated with 0.5 uM PLX4032 and/or 10 nM MYC-specific siRNA (siMYC) for 24 hours, which were then subjected to Western blotting (upper panel) and qRT-PCR (lower panel). The relative TERT mRNA expression was normalized to the control group. (FIG. 3B, 3C) Parental and BRAF V600E knock-in SW48 cells were treated with control siRNA (siControl) or MYC-specific siRNA (siMYC, 10 nM) for 48 h, followed by Western blotting (FIG. 3B) and luciferase reporter assays (FIG. 3C). *P<0.05, **P<0.01, ***P<0.001, by 2-tailed Student's t test. n.s., not significant. All the values represent the average standard deviation (SD) of triplicate samples from a typical experiment. Similar results were obtained in two additional independent experiments.\nas §1"}}}
{"molecule": "CCCS(=O)(=O)Nc1ccc(F)c(C(=O)c2c[nH]c3ncc(-c4ccc(Cl)cc4)cc23)c1F", "note": "[PLX4032]", "values": [{"measurement": "phosphorylation of FOS", "setting": "FOS phosphorylation", "result": "significantly decreased the phosphorylation of FOS"}, {"measurement": "MYC expression", "setting": "MYC expression", "result": "suppressed MYC expression"}]}
